# Where “and” joins values, the source holds several entries; their conditions need not be identical. Equal entries are not always repeated.
# System: 276233-004-R-J1-PDC KRAS spheroids with HUVEC/MSC, viability
# Assay: Anticancer human tumor 276233-004-R-J1-PDC patient-derived colon adenocarcinoma cell line growth inhibition [KRAS2]
# Conditions: for viability, T/C: stronger effect = lower value
# Summary of the method: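 Combination screen of spheroid viability in tumor-cell co-cultures with endothelial (HUVEC) and mesenchymal stem cell stroma. Each agent was tested in half-log dilutions, topping at clinical Cmax or at 10 microM without a known Cmax.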
# [1] = curve of first compound, second compound 0.0316 µM
# [2] = curve of first compound, second compound 0.1 µM
# [3] = curve of first compound, second compound 0.316 µM
# [4] = curve of first compound, second compound 1 µM
# [5] = curve of first compound, second compound 3.16 µM
# [6] = second compound 0.0316 µM, first compound 0.0316 µM
# [7] = second compound 0.0316 µM, first compound 0.1 µM
# [8] = second compound 0.0316 µM, first compound 0.316 µM
# [9] = second compound 0.0316 µM, first compound 1 µM
# [10] = second compound 0.0316 µM, first compound 3.16 µM
# [11] = second compound 0.0316 µM, first compound 10 µM
# [12] = second compound 0.1 µM, first compound 0.0316 µM
# [13] = second compound 0.1 µM, first compound 0.1 µM
# [14] = second compound 0.1 µM, first compound 0.316 µM
# [15] = second compound 0.1 µM, first compound 1 µM
# [16] = second compound 0.1 µM, first compound 3.16 µM
# [17] = second compound 0.1 µM, first compound 10 µM
# [18] = second compound 0.316 µM, first compound 0.0316 µM
# [19] = second compound 0.316 µM, first compound 0.1 µM
# [20] = second compound 0.316 µM, first compound 0.316 µM
# [21] = second compound 0.316 µM, first compound 1 µM
# [22] = second compound 0.316 µM, first compound 3.16 µM
# [23] = second compound 0.316 µM, first compound 10 µM
# [24] = second compound 1 µM, first compound 0.0316 µM
# [25] = second compound 1 µM, first compound 0.1 µM
# [26] = second compound 1 µM, first compound 0.316 µM
# [27] = second compound 1 µM, first compound 1 µM
# [28] = second compound 1 µM, first compound 3.16 µM
# [29] = second compound 1 µM, first compound 10 µM
# [30] = second compound 3.16 µM, first compound 0.0316 µM
# [31] = second compound 3.16 µM, first compound 0.1 µM
# [32] = second compound 3.16 µM, first compound 0.316 µM
# [33] = second compound 3.16 µM, first compound 1 µM
# [34] = second compound 3.16 µM, first compound 3.16 µM
# [35] = second compound 3.16 µM, first compound 10 µM
# 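Note: cells exposed to agents for seven days before viability read.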
# 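Throughout, for viability, T/C: 100% = DMSO vehicle control wells and lower values mean fewer viable cells.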
Compound,IC50 [1] [µM],IC50 [2] [µM],IC50 [3] [µM],IC50 [4] [µM],IC50 [5] [µM],"viability, T/C [6] [%]","viability, T/C [7] [%]","viability, T/C [8] [%]","viability, T/C [9] [%]","viability, T/C [10] [%]","viability, T/C [11] [%]","viability, T/C [12] [%]","viability, T/C [13] [%]","viability, T/C [14] [%]","viability, T/C [15] [%]","viability, T/C [16] [%]","viability, T/C [17] [%]","viability, T/C [18] [%]","viability, T/C [19] [%]","viability, T/C [20] [%]",also measured
COc1cc2nccc(Oc3ccc(NC(=O)C4(C(=O)Nc5ccc(F)cc5)CC4)cc3)c2cc1OC + C=CC(=O)N1CCN(c2nc(OCC3CCCN3C)nc3c2CCN(c2cccc4cccc(C)c24)C3)CC1CC#N,> 10,> 10,> 10,> 10,1.68,80,89.7,91,78.9,87.6,90.6,93.5,116,82.5,94.2,74.8,70.6,76.2,79.5,86,"viability, T/C [21]: 84.6%; viability, T/C [22]: 84.7%; viability, T/C [23]: 91.2%; viability, T/C [24]: 71.5%; viability, T/C [25]: 74.5%; viability, T/C [26]: 67.1%; viability, T/C [27]: 72%; viability, T/C [28]: 80.1%; viability, T/C [29]: 75.7%; viability, T/C [30]: 52.1%; viability, T/C [31]: 63.4%; viability, T/C [32]: 65%; viability, T/C [33]: 76.7%; viability, T/C [34]: 32.6%; viability, T/C [35]: 3.91%"
Cn1nccc1Nc1nccc(-c2cc3c(s2)C(C)(C)N(CCN2CCOCC2)C3=O)n1 + C=CC(=O)N1CCN(c2nc(OCC3CCCN3C)nc3c2CCN(c2cccc4cccc(C)c24)C3)CC1CC#N,4.83,> 10,> 10,> 10,0.236,99.8,108,86.1,75.9,51.7,44.5,100,99.3,79.7,75.7,51.7,52.2,109,98,101,"viability, T/C [21]: 77.8%; viability, T/C [22]: 56.4%; viability, T/C [23]: 57.4%; viability, T/C [24]: 101%; viability, T/C [25]: 109%; viability, T/C [26]: 87.2%; viability, T/C [27]: 77%; viability, T/C [28]: 55.3%; viability, T/C [29]: 65.9%; viability, T/C [30]: 68.7%; viability, T/C [31]: 46.7%; viability, T/C [32]: 46.7%; viability, T/C [33]: 47.5%; viability, T/C [34]: 21.2%; viability, T/C [35]: 10.9%"
CC1OCC2(CCN(c3cnc(Sc4ccnc(N)c4Cl)c(N)n3)CC2)C1N (centres undefined),,,,,,,,,,,,,,,,,,,,,"viability, T/C (compound 0.0316 µM): 83.3% and 88.2% and 102%; IC50 (compound alone, run of 07/19/2021): > 10 µM; IC50 (compound alone, run of 07/26/2021): > 10 µM; IC50 (curve of compound): > 10 µM"
